{"source": "patent US5227398A", "about": "“Benzodioxole derivatives and hepatopathy improvers comprising the same” (Tsumura & Co., priority 1990, dated 1993)", "key": {"[1]": {"system": "CCl4 -induced hepatopath rats", "assay": "Hepatopathy improving effects for CCl4-induced hepatopath rats (inhibition to the increase of transaminase in serum)", "assay_type": "in vivo", "details": "SD male rats, 100 mg/kg oral, 30 min before CCl4 (diluted fourfold with olive oil, peritoneally, 4 mg/kg), blood after 24 hours; for Serum GPT: Control 1 (no CCl4) 20, Control 2 (CCl4 alone) 1071; for Serum GOT: Control 1 (no CCl4) 89, Control 2 (CCl4 alone) 7719", "protocol": "The hepatopathy improving effects of the compounds (I') of this invention for CCl4 -induced hepatopath rats were investigated by using, as an index, the inhibition to the increase of transaminase in serum. After SD male rats (7 weeks old; Japanese Charles River) had been fasted for 24 hours, test drugs were orally administered at 100 mg/kg. Thirty minutes later, a CCl4 solution (diluted fourfold with olive oil) was peritoneally administered at 4 mg/kg. The rats were fasted further for 24 hours and then anesthetized with 1 ml/kg of sodium pentobarbital. After a blood sample was collected from the descending abdominal aorta of each rat, the liver was enucleated and its wet weight was measured. Further, the GOT and GPT of a serum, which had been obtained from the blood sample so collected, were measured by an automatic chemical analyzer (\"TBA-380\", trade name; manufactured by Toshiba Corp.). Thick serums were measured after dilution in distilled water.\nNote: Control 1 is a group not administered with CCl4 while Control\nis a group administered with CCl4 alone."}, "hepatopath": {"system": "hepatopath", "details": "previously found by the present assignee; cited from earlier work"}}, "note": "Structures can show the parent of a compound that is named as a salt.", "data": [{"compound": "c1csc(=Nc2ccc3c(c2)OCO3)s1", "note": "[Example 1, N,N-(1,3-dithiol-2-ylidene)-1,3-benzodioxol-5-amine]", "values": [{"measurement": "Serum GPT", "setting": "[1]", "result": 74, "unit": "U/1"}, {"measurement": "Serum GOT", "setting": "[1]", "result": 432, "unit": "U/1"}]}, {"compound": "COC(=O)CNc1ccc2c(c1)OCO2", "note": "[Synthesis Example 2, methyl 2-[N-(3,4-methylenedioxyphenyl)amino]acetate]", "values": [{"measurement": "Serum GPT", "setting": "[1]", "result": 310, "unit": "U/1"}, {"measurement": "Serum GOT", "setting": "[1]", "result": 1400, "unit": "U/1"}]}, {"compound": "COc1cc2c(c(OC)c1OC)-c1c(cc3c(c1OC)OCO3)CC(C)C(C)(O)C2", "note": "(stereo not shown) [gomisin A]", "values": [{"measurement": "improvement of GPT and GOT value of a hepatopath", "setting": "hepatopath", "result": "can promptly improve the GPT and GOT value of a hepatopath"}]}, {"compound": "CC(C)OC(=O)C(=C1SC=CS1)c1ccc2c(c1)OCO2", "note": "[Example 3, isopropyl 2-(1,3-dithiol-2-ylidene)-2-[3,4-(methylenedioxy)phenyl]acetate]", "values": [{"measurement": "Serum GPT", "setting": "[1]", "result": 557, "unit": "U/1"}, {"measurement": "Serum GOT", "setting": "[1]", "result": 2573, "unit": "U/1"}]}, {"compound": "CSCC(N)C(=O)Nc1ccc2c(c1)OCO2", "note": "(stereo not shown) [Example 5, [(3,4-methylenedioxy)aniline]-S-methylcysteinamide hydrochloride]", "values": [{"measurement": "Serum GPT", "setting": "[1]", "result": 57, "unit": "U/1"}, {"measurement": "Serum GOT", "setting": "[1]", "result": 391, "unit": "U/1"}]}, {"compound": "CC(C)OC(=O)C(C(=O)c1ccc2c(c1)OCO2)=C1SC=CS1", "note": "[Example 2, isopropyl 2-(1,3-dithiol-2-ylidene)-3-[3,4-(methylenedioxy)phenyl]-3-oxopropionate]", "values": [{"measurement": "Serum GPT", "setting": "[1]", "result": 100, "unit": "U/1"}, {"measurement": "Serum GOT", "setting": "[1]", "result": 563, "unit": "U/1"}]}, {"compound": "CSC(=S)Nc1ccc2c(c1)OCO2", "note": "[Synthesis Example 1, methyl N-(3,4-methylenedioxyphenyl)dithiocarbamate]", "values": [{"measurement": "Serum GPT", "setting": "[1]", "result": 230, "unit": "U/1"}, {"measurement": "Serum GOT", "setting": "[1]", "result": 1027, "unit": "U/1"}]}]}
